Measured values as given in paper PMC11623267, “Inhibitors of malaria parasite cyclic nucleotide phosphodiesterases block asexual blood-stage development and mosquito transmission” (Science Advances, 2024).
Where two headings read alike, the source gives them in different places.

Tests used:
[1] = system: cGMP-PDE activity in gametocyte lysates (PDEα, PDEδ); test: cGMP hydrolysis SPA in stage IV/V gametocyte membrane lysates; type: biochemical, Plasmodium falciparum; conditions: gametocyte lysate; geometric mean ×/÷ geometric SD
Method: cGMP signaling is known to play an essential role in gametogenesis in Plasmodium ([19], [20], [28]). We therefore tested the effects of all newly synthesized analogs for their ability to inhibit cGMP hydrolysis in crude gametocyte membrane preparations. […] S5A. These findings were also consistent with our enzyme-linked immunosorbent assay (ELISA)–based measurement of elevated cGMP levels in gametocytes following incubation with an example of each subseries (Fig. 2A). […] The levels of cAMP detected in gametocytes were similar in dimethyl sulfoxide (DMSO)–, XA-, and inhibitor-treated samples, and we could detect little or no cAMP hydrolysis in mature gametocytes (fig. S5B). […]
The cyclic nucleotide hydrolytic activity of membrane-associated parasite PDE enzymes was measured by a scintillation proximity assay (SPA) ([18]) using lysates of mature P. falciparum schizonts or stage IV/V gametocytes. […] The IC50 values for the compounds were determined using threefold serial dilutions in duplicate. […] The reactions were terminated by addition of 25 μl of PDE SPA beads (PerkinElmer, RPNQ0150), and after 20 min of incubation at room temperature, scintillation was measured using a Wallac 1450 Microbeta Counter (PerkinElmer) for 30 s. […]

[2] = system: P. falciparum clinical isolates from Tororo and Busia Districts of Uganda; test: Ex vivo 72-hour SYBR Green assay, Ugandan clinical isolates; type: cell-based, Plasmodium falciparum; conditions: 47 Ugandan isolates
Description: Clinical isolates were from the Tororo District of Uganda, located in the central-eastern part of the county near the Kenya border. Tororo and surrounding areas have high-intensity, year-round malaria transmission. […] Patients reporting use of antimalarial treatment within the previous 30 days or with evidence of an infection with other Plasmodium species were excluded. Informed consent was obtained from patients and/or primary care givers (depending on age); children aged 8 to 17 years provided assent. Two to 5 ml of blood was collected by venipuncture in a heparin tube. Samples were delivered to the adjacent IDRC laboratory at Tororo District Hospital or transported by car from Masafu Hospital on the day of collections for storage of blood spots on filter paper (for isolation of nucleic acids) and initiation of ex vivo culture of malaria parasites. Treatment involved a standard therapeutic regimen for uncomplicated falciparum malaria, which was a 3-day course of the artemisinin-based combination therapy (ACT), artemether-lumefantrine. In Uganda, at the time of sampling, there was widespread resistance to the antifolate drugs due to mutant pfdhfr/pfdhps alleles. […] Chloroquine was prepared at 10 mM in water. Stock solutions were stored at −20°C. Working solutions were freshly prepared from a single aliquot within 4 hours of the susceptibility test and stored at 4°C.
(§1) Samples were delivered to the adjacent IDRC laboratory at Tororo District Hospital or transported by car from Masafu Hospital on the day of collection for storage of blood spots on filter paper (for isolation of nucleic acids) and initiation of ex vivo culture of malaria parasites. […] Before assay, 10 mM antimalarial stock compounds were diluted as necessary in DMSO and stored at −20°C. […] Compounds were serially diluted threefold in a 96-well assay plate in complete medium to a final volume of 50 μl, in columns 1 to 10, with concentrations optimized to capture full dose-response curves. Column 11 contained compound-free controls, while column 12 contained uninfected human RBC controls. Parasite culture (150 μl) was added to columns 1 to 11 of the assay plate with a final volume of 200 μl per well, 0.2% parasitemia, and 2% hematocrit. […] Thawed plates were incubated with SYBR Green lysis buffer for 1 hour in the dark as previously reported ([62]). Fluorescence was quantified using a BMG Fluostar Optima plate reader at an excitation of 485 nm and an emission of 530 nm, and data were plotted using GraphPad Prism 7. The data were curve fit with a variable slope function to estimate IC50 values. For each isolate, a Z′ factor to assess assay quality was calculated from positive controls (eight drug-free wells) and negative controls (eight parasite-free, red cell control wells). Z′ values over 0.5 were considered good assays, but each curve was also examined by eye for suitability. Some assays with Z′ below 0.5 may be considered valid depending on factors such as the SE of the curve-fit IC50.

P. falciparum 3D7 = test: Ex vivo 72-hour SYBR Green assay, 3D7 control (Uganda); type: cell-based, Plasmodium falciparum; conditions: Ugandan ex vivo assay control; read-out: EC50 lab strain 3D7
Method: as §1

P. falciparum Dd2 = test: Ex vivo 72-hour SYBR Green assay, Dd2 control (Uganda); type: cell-based, Plasmodium falciparum; conditions: Ugandan ex vivo assay control; read-out: EC50 lab strain Dd2
Method: as §1

HepG2 cells = test: HepG2 cytotoxicity; type: cell-based
Description: Table 1. Key activity data for the three main chemical subseries against ABS parasites, parasite fractions, and HepG2 cells. ND, not determined; ×/÷ is the geometric mean with geometric SD. | column: HepG2 EC50 (nM) (selectivity index)

human PDE5A1 = biological target: T1, human PDE5A1 (Homo sapiens, UniProt O76074); test: Human PDE5 selectivity SPA; type: biochemical; conditions: IC50 PDE5A1 / IC50 PDEβ schizont lysates
T1 construct: GST (glutathione S-transferase); purchased BPS Bioscience BPS-60050
Method: (§2) The selectivity of the compounds on the parasite PDEs over the two human isoforms PDE5A1 and PDE6C was measured through a dose-response assay of their hydrolytic activity in presence of the compounds. Similarly to the parasite lysates, an SPA was carried out with the recombinant purified human glutathione S-transferase–tagged PDE5A1 or PDE6C (BPS Bioscience, BPS-60050 and BPS-60062) prepared in PDE assay buffer [10 mM tris-HCl (pH 7.4), 10 mM MgCl2, bovine serum albumin (0.1 mg/ml), and 0.05% Tween 20] at a concentration of 648 pg of enzyme per 50 μl of total volume per well. To determine the IC50 of the compounds, threefold serial dilutions in duplicate were performed. Briefly, the assays were carried out in flexible 96-well plates (PerkinElmer, 1450-401) by incubating the enzyme with the compounds and 5 μl of 200 nM cGMP dilution [[^3H]-cNMP tracer (PerkinElmer, cGMP-NET337250UC) in PDE assay buffer] to a total volume of 50 μl for 45 min at 37°C. The reactions were terminated by addition of 25 μl of PDE SPA beads (PerkinElmer, RPNQ0150), and after 20 min of incubation at room temperature, scintillation was measured using a Wallac 1450 Microbeta Counter (PerkinElmer) for 30 s. […] The selectivity of the compounds was expressed as the fold change in the IC50 obtained for PDE5A1 or PDE6C and the IC50 for the P. falciparum PDEβ schizont lysates.

[3] = system: P. falciparum stage V gametocytes (female gamete formation); test: Female gamete formation inhibition assay; type: cell-based, Plasmodium falciparum; conditions: 2 μM, 48 hours
Method: Mature gametocytes (>95% stage V) were treated with compounds (2 μM) for 48 hours before stimulating female gamete formation. To evaluate compound dose response, gametocytes were treated similarly at set concentrations representing a fourfold serial dilution. Female gamete activation was induced by both a temperature drop and the addition of 100 μM XA. Monoclonal anti-Pfs25 antibody (BEI Resources, catalog number MRA-28; 1:1000 dilution) conjugated to fluorescein isothiocyanate was used to detect female gametes. Image acquisition was performed using a Zeiss Axio Lab.A1 epifluorescence microscope with a 100/1.4 numerical aperture oil immersion objective and a Zeiss Axiocam 202 mono digital camera. Using a 100× objective, 30 images were taken per sample and analyzed manually. The number, size, roundness, and intensity of fluorescence of activated female gametocytes were evaluated. Compound IC50 values were determined with nonlinear curve fitting (GraphPad Prism 6), normalized to maximum and minimum inhibition.

[4] = system: P. falciparum stage IV/V gametocytes; test: LDH-based gametocyte viability assay; type: cell-based, Plasmodium falciparum; conditions: stage IV to V gametocytes
Method: The pLDH assay was performed on late (>95% stage IV/V) gametocytes. Compound dilutions were placed in triplicate in 96-well plates in a final volume of 100 μl per well. DHA and MMV048 were used as positive drug controls. The gametocyte cultures (100 μl per well) were added to the 96-well plates to achieve a final gametocytemia and hematocrit of 2 and 1%, respectively, in a total incubation volume of 200 μl. Plates were incubated at 37°C for 72 hours, followed by the replacement of spent medium with drug-free culture medium (75% medium change) ([54], [55]). Plates were then incubated for a further 72 hours before assessing viability by measuring pLDH activity. Gametocyte viability was determined spectrophotometrically by measuring the activity of pLDH, according to a modified version of a published protocol ([56]). Briefly, 100 μl of Malstat reagent [0.21% (v/v) Triton X-100, 222 mM L-(+)-lactic acid, 54.5 mM tris, 0.166 mM APAD (Sigma-Aldrich, A5251), adjusted to pH 9 with 1 M NaOH] was transferred into a clean 96-well plate. A fixed volume of 20 μl of parasite suspension per well was added to the Malstat plate, followed by the addition of 25 μl of PES/NBT (0.239 mM phenazine ethosulfate and 1.96 mM nitro blue tetrazolium chloride). Absorbance was measured with a Multiskan Ascent 354 multiplate scanner (Thermo LabSystems, Finland) at 620 nm.

[5] = system: P. falciparum stage V gametocytes (male gamete formation); test: Exflagellation (male gamete formation) inhibition assay; type: cell-based, Plasmodium falciparum; conditions: 2 μM, 48 hours
Method: The exflagellation inhibition assay was performed by capturing movement of exflagellation centers over time by video microscopy [adapted from a reported protocol ([52])]. For this carry-over format, mature stage V gametocytes were treated with 2 μM of each compound for 48 hours before induction of exflagellation in the presence of compound. To evaluate compound dose response, gametocytes were treated similarly at a set of concentrations representing a fourfold serial dilution. Mature gametocyte cultures (>95% stage V; 500 μl) were centrifuged at 3500 rpm for 30 s, and the pellet was resuspended in 30 μl of ookinete medium [RPMI 1640 medium containing L-glutamine (Sigma-Aldrich, R6504), gentamycin (0.024 mg/ml; HyClone, SV30080.01), 202 μM hypoxanthine (Sigma-Aldrich, H9636), 25 mM Hepes (Sigma-Aldrich, H4034), 0.2% glucose (Sigma-Aldrich, G6152), and 0.5% (w/v) AlbuMAX II (Invitrogen, Paisley, UK), supplemented with 100 μM XA and 20% human serum]. The activated culture (10 μl) was introduced into a Neubauer chamber and placed on the microscope platform to settle homogenously. Time was noted as time zero (T0), and the chamber was incubated at room temperature. Movement was recorded by video microscopy using a Carl Zeiss NT 6V/10W Stab microscope, fitted with a MicroCapture camera at 10× magnification, and then quantified by a semiautomated method, a modification of the method described previously ([53]). A series of 15 videos of 8 to 10 s each were captured at random locations between 15 and 22.5 min after incubation. Each video was analyzed using Icy bioimage analysis software to quantify the number of exflagellating centers. Compound IC50 values were determined with nonlinear curve fitting (GraphPad Prism 6), normalized to maximum and minimum inhibition.

human PDE6C = biological target: T2, human PDE6C (Homo sapiens, UniProt P51160); test: Human PDE6 selectivity SPA; type: biochemical; conditions: IC50 PDE6C / IC50 PDEβ schizont lysates
T2 construct: GST (glutathione S-transferase); purchased BPS Bioscience BPS-60062
T2 sequence (P51160 whole entry): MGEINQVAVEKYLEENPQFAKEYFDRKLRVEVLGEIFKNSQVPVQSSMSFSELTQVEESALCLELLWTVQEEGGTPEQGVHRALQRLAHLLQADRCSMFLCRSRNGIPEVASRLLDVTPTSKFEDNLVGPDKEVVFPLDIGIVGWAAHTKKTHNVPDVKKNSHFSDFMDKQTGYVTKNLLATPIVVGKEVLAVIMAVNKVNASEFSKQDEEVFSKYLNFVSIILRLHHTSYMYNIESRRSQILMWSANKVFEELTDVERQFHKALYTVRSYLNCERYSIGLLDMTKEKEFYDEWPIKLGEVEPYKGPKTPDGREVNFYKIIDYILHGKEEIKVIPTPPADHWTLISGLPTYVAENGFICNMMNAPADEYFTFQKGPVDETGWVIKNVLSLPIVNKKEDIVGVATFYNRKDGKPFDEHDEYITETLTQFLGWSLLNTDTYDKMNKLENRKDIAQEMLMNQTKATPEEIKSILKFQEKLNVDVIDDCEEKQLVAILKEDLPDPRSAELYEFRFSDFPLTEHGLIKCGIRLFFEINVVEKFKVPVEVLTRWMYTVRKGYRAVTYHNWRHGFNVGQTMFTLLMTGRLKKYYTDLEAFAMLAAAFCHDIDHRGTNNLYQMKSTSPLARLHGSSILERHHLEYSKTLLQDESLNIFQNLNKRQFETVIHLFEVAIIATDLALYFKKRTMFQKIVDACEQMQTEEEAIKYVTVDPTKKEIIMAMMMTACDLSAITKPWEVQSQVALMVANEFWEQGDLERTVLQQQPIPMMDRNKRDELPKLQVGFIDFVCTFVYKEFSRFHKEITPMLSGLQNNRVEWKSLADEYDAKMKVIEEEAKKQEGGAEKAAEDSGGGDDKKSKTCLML
Method: as §2

## CCNC(=O)c1cnc(OCC(C)C)c(-c2nc3c(C(C)C)n[nH]c3c(=O)[nH]2)c1 [SAL-0010333]
[1]
  IC50: 77.2 ± 1.8 nM
[2]; read-out: EC50 clinical isolates, Gmean (geometric mean)
  EC50: 167 nM
[2]; read-out: EC50 clinical isolates, Median
  EC50: 160 nM
P. falciparum 3D7
  EC50: 223 nM
P. falciparum Dd2
  EC50: 181 nM
HepG2 cells
  EC50: > 25000 nM

## CCc1c2nc(-c3cc(-c4ccccc4)cnc3OCC(C)C)[nH]c(=O)c2nn1CCOC [SAL-0010028]
Human PDE5A1
  Selectivity against human PDE5: 773 fold
[3]
  % inhibition of female gamete formation at 2 μM: 6.9 ± 2.6%
[4]
  % inhibition gametocyte viability at 15 μM: 57.1 ± 27.0%
[5]
  % inhibition of exflagellation at 2 μM: 18.6 ± 15.8%

## CCCCOc1ncc(Br)cc1-c1nc2c(CC)n(CCOC)nc2c(=O)[nH]1 [SAL-0010039]
Human PDE6C
  Selectivity against human PDE6: 338 fold
[3]
  % inhibition of female gamete formation at 2 μM: 20.7 ± 2.3%
[4]
  % inhibition gametocyte viability at 15 μM: 0%
[5]
  % inhibition of exflagellation at 2 μM: 0%
